Common to all, as to assay: growth of human tumour cells (NCI), 48 h
Experiment [1] concerns A498 renal.
Experiment [2] relates to DLD-1 colon.
For experiment [3], the system named is DMS 114 small cell lung.
Experiment [4] relates to DMS 273 small cell lung.
Experiment [5] deals with HOP-18 NSCLC.
The test system of experiment [6] is KM20L2 colon.
Experiment [7] has as its system LXFL 529 NSCLC.
Experiment [8] relates to M19-MEL melanoma.
Experiment [9] relates to NCI-H460 lung.
Experiment [10] concerns OVCAR-5 ovarian.
For experiment [11], the system named is SNB-78 CNS.
In experiment [12] the test system is SR leukemia.
Experiment [13] relates to XF 498 CNS.
The test system of experiment [14] is BT-549 breast.
Experiment [15] concerns HOP-62 NSCLC.

Where “and” joins values, the source holds several entries; their conditions need not be identical. Equal values may be shown once.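 All cell lines were grown in 96-well plates and treated with compound for 48 hours. GI50 = concentration required for 50% inhibition of growth. TGI is the concentration that stops growth completely.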 Where a SMILES comes first, the peptide text is derived from it. The star is where a group is joined. Cbz = O=C(OCc1ccccc1)*; Boc = CC(C)(C)OC(=O)*; OSu = O=C1CCC(=O)N1O*; Bn = c1ccc(C*)cc1

Consider `CO[C@@H]1C=C[C@@]23c4cc5c(cc4C(=O)O[C@H]2CN(C)[C@H]3C1)OCO5`, for which the TGI in experiment [1], in [2], in experiment [3], in [4], in [5] and in experiment [6] was greater than 100 µM each time. Also, the TGI in experiment [7], in [8], in [9], in experiment [10], in experiment [11] and in experiment [12] was greater than 100 µM in each case. The molecule further showed a TGI in experiment [13] greater than 100 µM.
Consider `CCN(CC)CCNC(=O)c1cc2cc(NC(=O)c3cc4cc(NC(=O)c5cc6cc(N)ccc6[nH]5)ccc4[nH]3)ccc2[nH]1`, for which the TGI in [1], in [14], in experiment [15], in experiment [9], in [10] and in experiment [12] was greater than 100 µM each time.
Turning to `Cc1ccc(N=Nc2ccc(O)c(CN(C)C)c2)cc1`, the TGI in [1] was 40.2 µM; in experiment [14] it was 79.9 µM; in experiment [15], 26.3 µM; in experiment [9], 33.8 µM; in experiment [10], 29.7 µM; in [12], greater than 100 µM.
Consider `CN(NC(=O)c1cccs1)C1=NCCCCN1`, for which the TGI in experiment [1], in [14], in experiment [15], in experiment [9], in [10] and in experiment [12] was greater than 100 µM each time.
As to `CC(SC(=S)N1CCOCC1)C(=O)Nc1nnc(-c2ccccc2)o1` (configuration not stated), the TGI in experiment [1], in experiment [14], in experiment [15], in experiment [9], in experiment [10] and in experiment [12] was greater than 100 µM in each case.
With `Cc1ccc(-c2cc(C(F)(F)F)nn2-c2ccc(S(N)(=O)=O)cc2)cc1`, the TGI in experiment [1] is 43.4 µM; in experiment [14] it was 32.1 µM; in [15] it was greater than 100 µM; in [9], 37.4 µM; in [10], greater than 59.8 µM; in experiment [12], 45.3 µM.
Consider `CC(C)(C)OC(=O)NC(Cc1ccc(OCc2ccccc2)cc1)C(=O)NC(CCCCNC(=O)OCc1ccccc1)C(=O)ON1C(=O)CCC1=O` (configuration not stated) (Boc-Tyr(Bn)-Lys(Cbz)-OSu; configuration not given here), for which the TGI in [1] is greater than 100 µM; in experiment [14] it was 43.3 µM; in experiment [15] it was 42.8 µM; in experiment [9], 50.8 µM; in experiment [10] it was 76.7 µM; in experiment [12], 54.9 µM.
With `CC1(C)C(O)C[C@@H](O)[C@@]2(C)C1CC[C@]1(C)C2C[C@@H](O)[C@@H]2C([C@@]3(C)CC[C@@H](C(C)(C)O)O3)CCC21C` (some centres not stated), the TGI was 34.9 µM in experiment [1]; 31.5 µM in [2]; 29.1 µM in [3]; 27.7 µM in experiment [4]; 31.1 µM in experiment [5]; 30.3 µM in experiment [15]. Also, the TGI in experiment [6] was 31.2 µM; in [7] it was 22.4 µM; in experiment [9], 35.9 µM; in experiment [10], 30.7 µM; in [11] it was 43.8 µM; in experiment [12], greater than 100 µM. The same molecule returned a TGI in experiment [13] of 33.7 µM.
Turning to `Cc1cc(S(=O)(=O)Nc2cc(N)[nH]n2)c(SCc2nc(N)nc(N(C)C)n2)cc1Cl`, the TGI in experiment [1], in [14], in experiment [15], in experiment [9], in experiment [10] and in experiment [12] was greater than 10 µM throughout.
As for `Nc1ccn(C2CCC(CO)O2)c(=S)n1` (configuration not stated), the TGI in experiment [1], in experiment [14], in experiment [15], in [9], in [10] and in experiment [12] was greater than 100 µM each time.
In the case of `CCN1C(=O)C(C)S/C1=N\NC(=O)CSc1nc2ccccc2c(=O)n1CC` (configuration not stated), the TGI in experiment [1] is greater than 100 µM; in [14], greater than 100 µM; in experiment [15] it was greater than 100 µM; in experiment [9] it was 20.4 µM; in experiment [10], greater than 100 µM; in [12], greater than 100 µM.
Consider `Cc1oc2c(Cl)cc(O)c(Cl)c2c2cccc1-2`, for which the TGI was greater than 100 µM in experiment [1]; 74.2 µM in [14]; 66.5 µM in experiment [15]; greater than 100 µM in [9]; greater than 100 µM in experiment [10]; 77 µM in experiment [12].
Regarding `COc1cc(C2C(C#N)=C(N)OC3=C2CCS(=O)(=O)c2ccc(C)cc23)cc(OC)c1OC` (configuration not stated), the TGI in [1], in experiment [14], in [15], in [9], in experiment [10] and in [12] was greater than 100 µM each time.
In the case of `COc1cc(OC)c2nc(C)c3c(c2c1)NCC3`, the TGI in [1] turned out to be 27.7 µM; in [14] it was 27.5 µM; in experiment [15] it was 21.6 µM; in experiment [9] it was 12 µM; in experiment [10], 25.6 µM; in experiment [12], 7.08 µM.
With `COc1cc2cccc(N)c2cc1OC`, the TGI in experiment [1] is greater than 100 µM; in experiment [14], greater than 92.6 µM; in experiment [15] it was greater than 100 µM; in [9], greater than 100 µM; in experiment [10], greater than 100 µM; in experiment [12], greater than 100 µM.
Regarding `O=C(O)CCc1ccc2c(c1)C(=O)CC2`, the TGI in experiment [1], in experiment [14], in experiment [15], in experiment [9], in experiment [10] and in experiment [12] was greater than 100 µM each time.
For `COc1ccc2[nH]cc([C@@H]3C4CCC(C4)[C@H]3NCc3cccc(CN[C@H]4C5CCC(C5)[C@@H]4c4c[nH]c5ccc(OC)cc45)c3)c2c1`, the TGI was 3.22 µM and 3.25 µM in [1]; 3.16 µM and 3.18 µM in [14]; 2.89 µM and 2.97 µM in experiment [15]; 0.556 µM and 1.12 µM in experiment [9]; 3.12 µM and 2.88 µM in experiment [10]; 0.78 µM and 1 µM in [12]. For the same molecule, in [12], the GI50 is 0.28 µM.
As for `CO/N=C(\C(=O)N(C)n1cnnc1)c1csc(NC(c2ccccc2)(c2ccccc2)c2ccccc2)n1`, the TGI in [1], in [14], in [15], in experiment [9], in experiment [10] and in experiment [12] was greater than 10 µM in each case.
Consider `C=C(C)[C@H]1C=C[C@@H](OC(=O)c2cccnc2)[C@@]23CO[C@@](C)([C@H](OC(=O)c4cccnc4)[C@@]4(OC(C)=O)C[C@H](C)[C@H](OCCC)[C@@H]4[C@H]2OC(C)=O)[C@H]13`, for which the TGI in experiment [1], in experiment [14], in experiment [15], in experiment [9], in experiment [10] and in experiment [12] was greater than 15 µM in each case.
Consider `CC(C)NC(=O)OCc1c(COC(=O)NC(C)C)c(-c2cc[n+](COC(=O)C(C)(C)C)cc2)n2c1CCC2`, for which the TGI in experiment [1], in experiment [14], in experiment [15], in experiment [9], in [10] and in [12] was greater than 100 µM throughout.
For the molecule `N#C/C(C(=O)Nc1ccc(Cl)cc1)=C(/N)N1CCCCC1`, the TGI in experiment [1], in experiment [14], in [15], in experiment [9], in experiment [10] and in [12] was greater than 100 µM each time.
As for `CN(C)CCN=C1Nc2ccccc2C(=S)N2CSCC12` (configuration not stated), the TGI in experiment [1], in experiment [14], in experiment [15], in experiment [9], in experiment [10] and in experiment [12] was greater than 100 µM each time.
With `COc1cccc2c1OC(c1ccc(C#N)cc1)C([N+](=O)[O-])=C2` (configuration not stated), the TGI in experiment [1] is 4.03 µM; in experiment [14] it was 2.85 µM; in [15], 8.3 µM; in [9] it was 4.92 µM; in experiment [10], 3.72 µM; in experiment [12] it was 3.11 µM.
In the case of `COc1ccc2cc(C(=O)O)ccc2c1OC`, the TGI in experiment [1], in experiment [14], in experiment [15], in experiment [9], in experiment [10] and in experiment [12] was greater than 100 µM each time.
For `CN(C)P(=O)(Oc1ccc(CC(NC(=O)OCc2ccccc2)C(=O)OCc2ccccc2)cc1)N(C)C` (configuration not stated), the TGI in [1] worked out at 38.1 µM; in experiment [14] it was 32.4 µM; in [15], 31.7 µM; in experiment [9] it was 48.8 µM; in [10], 38.6 µM; in experiment [12] it was 24.6 µM.
`CC1=C/C(=N\O)C(C(O)(C(F)(F)F)C(F)(F)F)C(C)(C)C1` (configuration not stated): the TGI in [1], in experiment [14], in experiment [15], in experiment [9], in experiment [10] and in experiment [12] was greater than 10 µM each time.
On to `COc1ccc(C(CC(=O)C(C)(C)CN2CCCCC2)SCCS(=O)(=O)O)cc1` (configuration not stated), for which the TGI in experiment [1] is 74.3 µM; in experiment [14], greater than 100 µM; in experiment [15], greater than 100 µM; in experiment [9] it was greater than 100 µM; in experiment [10], greater than 100 µM; in experiment [12], 49.7 µM.
Turning to `O=c1ccn(C2OC(CO)C(O)C2[Se]c2ccccc2)c(=O)[nH]1` (configuration not stated), the TGI in [1], in [14], in [15], in experiment [9], in experiment [10] and in experiment [12] was greater than 100 µM each time.
For `CCc1c(Cc2[nH]c(Cc3[nH]c(C=O)c(C)c3CC)c(CC)c2CC)[nH]c(C=O)c1C`, the TGI in [2], in [3], in experiment [4], in experiment [5], in experiment [15] and in [6] was greater than 100 µM each time. The TGI in experiment [7], in experiment [8], in [9], in [11], in experiment [12] and in experiment [13] was greater than 100 µM each time.
As for `CC(C)(C)OC(=O)NCCc1cccc2c1oc1c(CCC(=O)O)cccc12`, the TGI in [1], in experiment [2], in experiment [3], in experiment [4], in [5] and in experiment [6] was greater than 100 µM in each case. Also, the TGI in experiment [7], in [8], in [9], in experiment [10], in [11] and in experiment [12] was greater than 100 µM throughout. The TGI in [13] is greater than 100 µM.
With `COC(=O)C1OC(O[C@H]2CC[C@]3(C)[C@H]4CC=C5[C@@H]6CC(C)(C)CC[C@]6(C(=O)OC6OCC(O)C(O)C6OC6OC(C)C(OC7OCC(O)C(OC8OCC(O)C(O)C8O)C7O)C(OC7OCC(O)C(O)C7O)C6O)CC[C@@]5(C)[C@]4(C)CC[C@H]3C2(C)C)C(O)C(OC2OCC(O)C(O)C2O)C1O` (some centres not stated), the TGI is 3.55 µM and 4.34 µM in experiment [1]; 8.45 µM and 9.89 µM in experiment [14]; 17.8 µM and 23.7 µM in experiment [15]; greater than 100 µM in experiment [9]; 22.5 µM and 15.8 µM in experiment [10]; 4.76 µM and 7.55 µM in [12]. Besides, the GI50 is 4.76 µM and 10.9 µM in experiment [15]; > 100 µM and 33.1 µM in [9].
With `O=C(c1ccccc1)c1ccc(-n2c3ccccc3c3ccc4c(c32)C(=O)C=CC4=O)cc1`, the TGI in experiment [1] was 25.3 µM; in experiment [14] it was 38.5 µM; in experiment [15], 33.6 µM; in experiment [9], 36.2 µM; in experiment [10], 38.1 µM; in experiment [12], greater than 34 µM.

The values above are taken from PubChem BioAssay (NCI).
